From US8309558B2, “Compounds for the treatment of hepatitis C” (Bristol-Myers Squibb Company, priority 2008, dated 2012)
Like-named read-outs stand apart in the source and are kept apart here.

Key:
[1] = molecular target: T1, HCV NS5B RdRp genotype 1b (Hepatitis C virus genotype 1b, UniProt Q9WMX2); test: Standard HCV NS5B RdRp enzyme assay; format: biochemical; conditions: HCV NS5B RdRp genotype 1b, read-out: IC50
T1 construct: The protein was expressed with an 18 amino acid C-terminal truncation to enhance the solubility; made in house; host or cells: E. coli BL21(DE3), pET21a vector
In short: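 Radiometric SPA measuring 3H-UMP incorporation on polyA/biotin-oligo-dT12 (6 nM/180 nM), 0.29 μM total UTP. Enzyme: NS5B 1b lacking last 18 residues, 28 nM final, 30° C for 60 min in 20 mM Hepes pH 7.5, 2.5 mM MgCl2, 2% DMSO. IC50 from seven-point curves.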

HCV replicon cells = test: HCV replicon FRET / luciferase assay (96-well plates); format: cell-based; conditions: Hepatitis C virus, HCV replicon, read-out: EC50
In short: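 Readout was NS3 protease cleavage of an EDANS/DABCYL FRET peptide (20 μM final) in lysed HCV replicon cells, or Renilla luciferase in reporter replicons. Background came from wells with the highest level of control protease inhibitor. EC50 marked the concentration giving 50% signal reduction.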

[2] = untitled table after Table 1b, values without asterisk

T1 sequence (Q9WMX2 2420-2992): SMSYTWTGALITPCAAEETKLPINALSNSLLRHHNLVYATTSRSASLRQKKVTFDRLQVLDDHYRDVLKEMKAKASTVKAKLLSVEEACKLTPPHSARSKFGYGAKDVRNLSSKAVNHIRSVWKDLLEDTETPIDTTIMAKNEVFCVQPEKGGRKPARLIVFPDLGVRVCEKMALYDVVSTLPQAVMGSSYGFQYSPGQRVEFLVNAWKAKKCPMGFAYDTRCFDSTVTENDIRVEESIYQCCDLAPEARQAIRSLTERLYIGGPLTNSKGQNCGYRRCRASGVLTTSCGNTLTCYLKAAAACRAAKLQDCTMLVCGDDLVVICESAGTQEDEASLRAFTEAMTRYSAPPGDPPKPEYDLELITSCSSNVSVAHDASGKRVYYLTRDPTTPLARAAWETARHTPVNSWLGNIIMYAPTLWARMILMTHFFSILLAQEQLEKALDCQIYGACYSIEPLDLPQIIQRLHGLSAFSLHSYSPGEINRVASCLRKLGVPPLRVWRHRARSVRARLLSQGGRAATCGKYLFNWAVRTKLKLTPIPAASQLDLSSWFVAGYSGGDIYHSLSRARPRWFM

**Q.** Which IC50 ([1]; untitled table after Table 1b) does the source give for `CNC(=O)c1c(-c2ccc(F)cc2)oc2ccc(-c3cc(C(=O)NC4(c5ccccn5)CC4)ccc3Cl)cc12` [drawing 605] here?
**A.** 0.01 µM

**Q.** What about the EC50 (HCV replicon cells; [2]) of the same molecule?
**A.** 0.00183 µM

**Q.** Which IC50 ([1]; Table 1a) does the source give for `CNC(=O)c1c(-c2ccc(F)cc2)oc2ccc(-c3cccc(C(=O)NCc4ccccc4)c3)cc12` here?
**A.** < 0.25 µM

**Q.** What about the EC50 (HCV replicon cells; Table 1a) of the same molecule?
**A.** < 0.25 µM

**Q.** For `CNC(=O)c1c(-c2ccc(F)cc2)oc2ccc(-c3cccc(C(=O)N4CCC(C)CC4)c3)cc12`, which IC50 ([1]; Table 1a) is on record?
**A.** 1 to 10 µM

**Q.** And the EC50 (HCV replicon cells; Table 1a)?
**A.** 1 to 10 µM

**Q.** `CCN(CC)C(=O)c1ccc(-c2ccc3oc(-c4ccc(F)cc4)c(C(=O)NC)c3c2)cc1` was tested. Which IC50 ([1]; Table 1a) did it give?
**A.** 1 to 10 µM

**Q.** What about the EC50 (HCV replicon cells; Table 1a) of the same molecule?
**A.** > 10 µM

**Q.** How did the IC50 ([1]; Table 1b) turn out when `CNC(=O)c1c(-c2ccc(F)cc2)oc2ccc(-c3cc(C(=O)NC4(c5nnc(C(F)(F)F)[nH]5)CC4)ccc3C)cc12` was run?
**A.** < 0.25 µM

**Q.** What about the EC50 (HCV replicon cells; Table 1b) of the same molecule?
**A.** < 0.25 µM

**Q.** Which results are given for `CNC(=O)c1c(-c2ccc(F)cc2)oc2ccc(-c3cccc(C(=O)NC(C)(C)C(=O)Nc4cc(C)on4)c3)cc12`?
**A.** IC50 ([1]; Table 1b): < 0.25 µM; EC50 (HCV replicon cells; Table 1b): < 0.25 µM

**Q.** Which IC50 ([1]; Table 1b) does the source give for `CNC(=O)c1c(-c2ccc(F)cc2)oc2ccc(-c3cc(C(=O)NC4(c5coc(C)n5)CC4)ccc3C)cc12` here?
**A.** < 0.25 µM

**Q.** What about the EC50 (HCV replicon cells; Table 1b) of the same molecule?
**A.** < 0.25 µM

**Q.** What does the source list for `CNC(=O)c1c(-c2ccc(F)cc2)oc2ccc(-c3ccc(F)cc3OCc3ccccc3)cc12`?
**A.** IC50 ([1]; Table 1a): > 10 µM; EC50 (HCV replicon cells; Table 1a): 1 to 10 µM

**Q.** `CNC(=O)c1c(-c2ccc(F)cc2)oc2ccc(-c3ccc(-c4cnn(C)c4)c(C(=O)NCC(C)C)c3)cc12` was tested. Which IC50 ([1]; Table 1b) did it give?
**A.** < 0.25 µM

**Q.** What about the EC50 (HCV replicon cells; Table 1b) of the same molecule?
**A.** < 0.25 µM

**Q.** What does the source list for `CNC(=O)c1c(-c2ccc(F)cc2)oc2ccc(-c3cc(C(=O)NCC(C)C)ccc3OCCC3CNCCO3)cc12` (stereo not drawn) [drawing 415]?
**A.** IC50 ([1]; Table 1b): < 0.25 µM; EC50 (HCV replicon cells; Table 1b): < 0.25 µM

**Q.** How did the IC50 ([1]; Table 1b) turn out when `CNC(=O)c1c(-c2ccc(F)cc2)oc2ccc(-c3cc(C(=O)NC4(c5ccccn5)CC4)c(OC)cc3Cl)cc12` was run?
**A.** < 0.25 µM

**Q.** And the EC50 (HCV replicon cells; Table 1b)?
**A.** < 0.25 µM

**Q.** What does the source list for `CNC(=O)c1c(-c2ccc(F)cc2)oc2ccc(-c3cccc(C(=O)N(C)C)c3)cc12`?
**A.** IC50 ([1]; Table 1a): 1 to 10 µM; EC50 (HCV replicon cells; Table 1a): 1 to 10 µM

**Q.** Which IC50 ([1]; Table 1b) does the source give for `CNC(=O)c1c(-c2ccc(F)cc2)oc2ccc(-c3cc(C(=O)O)c(C)cc3C)c(F)c12` here?
**A.** 1 to 10 µM

**Q.** What about the EC50 (HCV replicon cells; Table 1b) of the same molecule?
**A.** > 10 µM

**Q.** Which IC50 ([1]; Table 1b) does the source give for `CNC(=O)c1c(-c2ccc(F)cc2)oc2ccc(-c3cc(OCCC4CCCNC4)cc(C(=O)NCC(C)C)c3)cc12` (stereo not drawn) here?
**A.** < 0.25 µM

**Q.** What about the EC50 (HCV replicon cells; Table 1b) of the same molecule?
**A.** < 0.25 µM

**Q.** Which results are given for `CNC(=O)c1c(-c2ccc(F)cc2)oc2ccc(-c3cccc(C(=O)NC(C)(C)C(=O)NC)c3)cc12`?
**A.** IC50 ([1]; Table 1a): < 0.25 µM; EC50 (HCV replicon cells; Table 1a): < 0.25 µM

**Q.** With `CNC(=O)c1c(-c2ccc(F)cc2)oc2ccc(-c3cc(C(=O)NC4(c5ccccn5)CC4)c(F)cc3Cl)cc12` as the molecule, how does the IC50 ([1]; Table 1b) read?
**A.** < 0.25 µM

**Q.** What about the EC50 (HCV replicon cells; Table 1b) of the same molecule?
**A.** < 0.25 µM

**Q.** Which results are given for `CCCC[C@H](CO)NC(=O)c1cccc(-c2ccc3oc(-c4ccc(F)cc4)c(C(=O)NC)c3c2)c1` [drawing 614]?
**A.** IC50 ([1]; untitled table after Table 1b): 0.6 µM; EC50 (HCV replicon cells; [2]): 1.26 µM

**Q.** For `CNC(=O)c1c(-c2ccc(F)cc2)oc2ccc(-c3cccc(C(=O)N(C)CCOC)c3)cc12`, which IC50 ([1]; Table 1a) is on record?
**A.** 1 to 10 µM

**Q.** And the EC50 (HCV replicon cells; Table 1a)?
**A.** 1 to 10 µM

**Q.** Which results are given for `CNC(=O)c1c(-c2ccc(F)cc2)oc2ccc(-c3cccc(C(=O)N4CCC[C@H]4CO)c3)cc12`?
**A.** IC50 ([1]; Table 1a): 0.25 to 1 µM; EC50 (HCV replicon cells; Table 1a): 1 to 10 µM

**Q.** With `CNC(=O)c1c(-c2ccc(F)cc2)oc2ccc(-c3cccc(S(=O)(=O)NC(C)C)c3)cc12` as the molecule, how does the IC50 ([1]; Table 1a) read?
**A.** > 10 µM

**Q.** And the EC50 (HCV replicon cells; Table 1a)?
**A.** > 10 µM

**Q.** With `CNC(=O)c1c(-c2ccc(F)cc2)oc2ccc(-c3cc(OCCN(C)C)cc(C(=O)NCC(C)C)c3)cc12` as the molecule, how does the IC50 ([1]; Table 1b) read?
**A.** 0.25 to 1 µM

**Q.** What about the EC50 (HCV replicon cells; Table 1b) of the same molecule?
**A.** 0.25 to 1 µM

**Q.** For `CNC(=O)c1c(-c2ccc(F)cc2)oc2ccc(-c3ccc(F)c(C(=O)NC(C)(C)C)c3)cc12`, which IC50 ([1]; Table 1b) is on record?
**A.** < 0.25 µM

**Q.** What about the EC50 (HCV replicon cells; Table 1b) of the same molecule?
**A.** < 0.25 µM

**Q.** With `CNC(=O)c1c(-c2ccc(F)cc2)oc2ccc(-c3cccc(C(=O)N[C@@H](C)C(=O)OC)c3)cc12` as the molecule, how does the IC50 ([1]; Table 1a) read?
**A.** < 0.25 µM

**Q.** And the EC50 (HCV replicon cells; Table 1a)?
**A.** 1 to 10 µM

**Q.** For `CNC(=O)c1c(-c2ccc(F)cc2)oc2ccc(-c3cc(OCCn4cncn4)cc(C(=O)NCC(C)C)c3)cc12`, which IC50 ([1]; Table 1b) is on record?
**A.** 0.25 to 1 µM

**Q.** What about the EC50 (HCV replicon cells; Table 1b) of the same molecule?
**A.** 1 to 10 µM

**Q.** How did the IC50 ([1]; Table 1a) turn out when `CNC(=O)c1c(-c2ccc(F)cc2)oc2ccc(-c3ccccc3/C=C/C(=O)O)cc12` was run?
**A.** 1 to 10 µM

**Q.** What about the EC50 (HCV replicon cells; Table 1a) of the same molecule?
**A.** > 10 µM

**Q.** With `CNC(=O)c1c(-c2ccc(F)cc2)oc2ccc(-c3cccc(C(=O)N(C)CC(C)C)c3)cc12` as the molecule, how does the IC50 ([1]; Table 1a) read?
**A.** < 0.25 µM

**Q.** And the EC50 (HCV replicon cells; Table 1a)?
**A.** 0.25 to 1 µM

**Q.** Which results are given for `CNC(=O)c1c(-c2ccc(F)cc2)oc2ccc(-c3cccc(C(=O)NC(C)(C)C(=O)N(C)C)c3)cc12`?
**A.** IC50 ([1]; Table 1a): < 0.25 µM; EC50 (HCV replicon cells; Table 1a): < 0.25 µM

**Q.** Which IC50 ([1]; Table 1a) does the source give for `CNC(=O)c1c(-c2ccc(F)cc2)oc2ccc(-c3cc(C(=O)NCC(C)C)ccc3OC)cc12` here?
**A.** < 0.25 µM

**Q.** What about the EC50 (HCV replicon cells; Table 1a) of the same molecule?
**A.** < 0.25 µM

**Q.** With `CNC(=O)c1c(-c2ccc(F)cc2)oc2ccc(-c3ccc(C(=O)O)cc3)cc12` as the molecule, how does the IC50 ([1]; Table 1a) read?
**A.** 0.25 to 1 µM

**Q.** What about the EC50 (HCV replicon cells; Table 1a) of the same molecule?
**A.** 1 to 10 µM

**Q.** Which results are given for `CNC(=O)c1c(-c2ccc(F)cc2)oc2ccc(-c3cccc(C(=O)N4CCCC4)c3)cc12`?
**A.** IC50 ([1]; Table 1a): 0.25 to 1 µM; EC50 (HCV replicon cells; Table 1a): 0.25 to 1 µM
